Results taken from patent US20260151406A1, “COMPOSITION FOR PREVENTING OR TREATING PERIODONTITIS COMPRISING CANNABIDIOL AND TAURINE” (MBP CO., LTD., priority 2022, published 2026).

Tests used:
Type in all cases: cell-based
[1] = tested on: bone loss by RANKL in macrophages; assay: Inhibition of bone loss by RANKL in macrophages (pit formation area analysis); conditions: pit formation area (FIG. 4)
Description: (§1) To confirm the inhibitory effect of CBD and taurine on bone loss caused by periodontitis, the degree of TRAP formation and bone loss by RANKL (receptor activator of nuclear factor-KB ligand) was analyzed through pit formation area analysis.
To further confirm the bone loss inhibition efficacy of CBD and taurine, the degree of inhibition of bone loss by RANKL in macrophages was analyzed.

[2] = tested on: TRAP-positive cell formation in macrophages; assay: Inhibition of TRAP-positive cell formation by RANKL during osteoclast differentiation; conditions: osteoclast differentiation (FIG. 3)
Description: as §1
As a result of analyzing the degree of inhibition of TRAP-positive cell formation by RANKL during osteoclast differentiation, it was confirmed that the inhibition efficacy of TRAP-positive cell formation was very low when CBD or taurine was used alone, but the inhibition efficacy of TRAP-positive cell formation was very high when CBD and taurine were used in combination (FIG. 3).

[3] = tested on: Raw264.7 cells; assay: Evaluation of cytotoxicity (intracellular toxicity); conditions: CBD alone (FIG. 1)
Description: For CBD and taurine, intracellular toxicity evaluation was performed on osteoclasts (Raw264.7 cells), which are inflammatory cells, and the results are shown in FIG. 1. […] The appropriate concentrations of CBD (10 uM) and Taurine (0.5 mM) were determined, and intracellular toxicity evaluation according to subsequent combined treatment was performed.

What does the source list for NCCS(=O)(=O)O [taurine]?
bone loss inhibition efficacy [1]: almost none or very low; inhibition efficacy of TRAP-positive cell formation [2]: very low

For C=C(C)[C@@H]1CCC(C)=C[C@H]1c1c(O)cc(CCCCC)cc1O [CBD, Cannabidiol], which “bone loss inhibition efficacy” value [1] is on record?
The value was “almost none or very low”.

And the “concentration up to which there was no intracellular toxicity” value [3]?
Its value is no more than 12 µM.

What about the “inhibition efficacy of TRAP-positive cell formation” value [2] of the same compound?
The value was “very low”.
